Reference: article PMC4436593, “Endoplasmic reticulum stress-independent activation of unfolded protein response kinases by a small molecule ATP-mimic” (eLife, 2015)
pIC50: −log10 of the molar value.

Assays:
IRE1α-KR43 = IRE1α-KR43 (Homo sapiens, UniProt O75460); assay: IRE1α-KR43 RNA cleavage assay with 5′ [32P]-labeled RNA substrate HP21 (kobs, single turnover); type: biochemical; parameters: IRE1α-KR43 comprises the soluble cytoplasmic portion of IRE1α, composed of the kinase and RNase domains plus 43 amino acids of the linker; 6xHis (N, cleaved yes); made in house; host or cells: SF21 insect cells; settings: for 1/2kmax, obs (IRE1α-KR43 concentration at half-maximal kobs) / Hill coefficient n: RNase activity as a function of IRE1α-KR43 concentration
Sequence of IRE1α-KR43 (O75460 465-977 limits assumed): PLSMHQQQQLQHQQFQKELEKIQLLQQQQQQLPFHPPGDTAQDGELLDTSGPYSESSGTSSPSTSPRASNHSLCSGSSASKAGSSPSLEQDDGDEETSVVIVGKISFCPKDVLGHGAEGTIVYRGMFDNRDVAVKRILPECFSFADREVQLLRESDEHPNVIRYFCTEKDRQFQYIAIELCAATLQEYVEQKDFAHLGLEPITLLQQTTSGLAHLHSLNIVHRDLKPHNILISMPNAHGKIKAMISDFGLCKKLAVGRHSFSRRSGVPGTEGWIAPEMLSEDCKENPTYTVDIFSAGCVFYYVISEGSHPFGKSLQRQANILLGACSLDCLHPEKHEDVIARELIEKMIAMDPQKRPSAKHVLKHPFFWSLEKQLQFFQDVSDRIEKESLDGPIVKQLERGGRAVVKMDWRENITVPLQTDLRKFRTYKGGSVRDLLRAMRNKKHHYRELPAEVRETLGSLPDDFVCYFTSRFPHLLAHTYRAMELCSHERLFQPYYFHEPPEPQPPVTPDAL
Protocol: To this end, we modified the molecule by substituting urea-linked and variably m- and p-substituted phenyl groups for the benzimidazole of APY29. Diphenyl urea linkers have previously been used successfully in the design of kinase inhibitors ([Dar et al., 2008]; [Dar and Shokat, 2011]; [Korennykh et al., 2012]). In exploring the addition of this chemotype on the APY29 scaffold, we generated a panel of 10 variants (Figure 1B). Each member of the panel was tested in an RNase activity assay using recombinant IRE1α-KR43 and a labeled short hairpin RNA substrate derived from human XBP1 mRNA. IRE1α-KR43 comprises the soluble cytoplasmic portion of IRE1α, composed of the kinase and RNase domains plus 43 amino acids of the linker that bridges the kinase to its transmembrane domain.
Human IRE1α-KR43 with a hexa-histidine (6xHis) tag in its N-terminus was expressed and purified in SF21 cells as described ([Li et al., 2010]). Cells were lysed in buffer containing 20 mM Tris-HCl, pH 7.5, 600 mM NaCl, 2 mM MgCl2, 3 mM imidazole, 10% glycerol, 1% Triton X-100, 3 mM β-mercaptoethanol, COMPlete protease inhibitors (Roche), and PhosSTOP phosphatase inhibitor cocktail (Roche) and passed through an AVESTIN emulsiflex-C3 3× times for complete lysis. The lysate was cleared using centrifugation at 100,000×g. Clear lysate was allowed to incubate on Ni-NTA agarose (Qiagen) beads for 2 hr before being washed 3× times with buffer containing 20 mM Tris-HCl, pH7.5, 600 mM NaCl, 2 mM MgCl2, 30 mM imidazole, 10% glycerol, and 3 mM β-mercaptoethanol. Protein was eluted from the column by raising the imidazole concentration to 250 mM. The eluate was then passed through a HiTrap desalting column (GE Healthcare). Lastly, the 6xHis was cleaved as described ([Li et al., 2010]) and the resulting protein was then loaded onto a HisTrap HP, 5 × 5 ml column to remove the uncleaved protein. The cleaved protein was then loaded on a Mono-S 5/50 GL column (GE Healthcare), and the eluate was then concentrated to 5 mg/ml and loaded on a Superdex 200 HR 10/300 (GE Healthare) column in buffer containing 20 mM Tris-HCl pH 7.5, 250 mM NaCl, 5% Glycerol and 5 mM tris(2-carboxyethyl)phosphine (TCEP). The pure protein solution was aliquoted and stored at −80°C.

[1] = system: XBP1 mRNA splicing in HEK293T cells; assay: XBP1 mRNA splicing by RT-PCR in HEK293T cells; type: cell-based, human; settings: for XBP1 mRNA splicing (in words): IPAx 2 µM, 4 hr
Protocol: To examine the effects of IPA in living cells, we monitored the UPR in HEK293T cells using RT-PCR to measure splicing of XBP1 mRNA. […] At a concentration of 2 μM IPA, splicing was induced within 2 hr (lane 5). […] We used tunicamycin (Tm), which induces ER stress by blocking N-linked glycosylation, as a positive control to induce the UPR (Figure 2A, lanes 7, and Figure 2B, lane 4).
Cells were lysed and total RNA was collected (Total RNA Kit 1, EZ-RNA, EZNA [USA]). PolyA^+ mRNA was reverse transcribed with M-MLV (Invitrogen), and the resulting cDNA was used as a template for PCR amplification across the fragment of XBP1 cDNA containing the intron. Primers used to amplify human XBP1: 5′-[…]-3′ and 5′-[…]-3′. To amplify murine XBP1: 5′-[…]-3′ and 5′-[…]-3′. PCR conditions were as follows: 95°C for 5 min, 95°C for 1 min, 58°C for 30 s, 72°C for 30 s, and 72°C for 5 min, with 20 cycles of amplification. PCR products were resolved on a 2.5% agarose tris-acetate EDTA (TAE) gel. As previously reported, a hybrid amplicon species consisting of unspliced Xbp-1 annealed to spliced Xbp-1 can also be produced through this PCR reaction and was visible as a slower migrating band above the unspliced amplicon. The same cDNA was used as template for PCR of DERLIN-3 and HERPUD1, both ATF6 targets, and GAPDH, which was used as loading control. Primers used included the following: DERLIN-3, 5′-[…]-3′ and 5′-[…]-3′; HERPUD1-1, 5′-[…]-3′ and 5′-[…]-3′; GAPDH, 5′-[…]-3′ and 5′-[…]-3′. PCR conditions were: 95°C × 5 min, 95°C × 1 min, 56°C × 30 s, 72°C for 30 s for 25 cycles, 72°C for 5 min at 4°C. PCR products were resolved on a 2% agarose TAE gel.

[2] = molecular target: T1, GST-PERK kinase domain (580–1077 aa) (Mus musculus, UniProt Q9Z2B5); assay: In vitro GST-PERK kinase assay (eIF2α phosphorylation with γ-[32P]-ATP)
T1 sequence (Q9Z2B5 580-1077): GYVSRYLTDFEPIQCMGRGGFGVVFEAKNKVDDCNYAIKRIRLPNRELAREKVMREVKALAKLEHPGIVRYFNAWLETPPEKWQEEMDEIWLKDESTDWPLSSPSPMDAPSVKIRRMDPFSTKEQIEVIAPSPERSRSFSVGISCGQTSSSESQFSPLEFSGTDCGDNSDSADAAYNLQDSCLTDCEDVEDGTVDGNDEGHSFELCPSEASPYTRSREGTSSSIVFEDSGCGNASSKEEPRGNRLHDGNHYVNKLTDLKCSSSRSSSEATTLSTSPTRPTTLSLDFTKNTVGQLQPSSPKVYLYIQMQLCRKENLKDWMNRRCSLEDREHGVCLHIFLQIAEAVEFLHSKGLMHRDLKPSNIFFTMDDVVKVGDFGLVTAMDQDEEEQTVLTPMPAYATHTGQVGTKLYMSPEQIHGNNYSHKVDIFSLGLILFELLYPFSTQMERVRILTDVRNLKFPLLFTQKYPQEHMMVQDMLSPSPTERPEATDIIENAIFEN

Row | SMILES | 1/2kmax, obs (IRE1α-KR43 concentration at half-maximal kobs) (IRE1α-KR43; compound 20 μM) [µM] | Hill coefficient n (IRE1α-KR43; compound 20 μM) | IRE1α activation as a function of enzyme concentration (in words) (IRE1α-KR43; compound 20 μM, versus no-compound control) | IRE1α RNase activation (in words) (IRE1α-KR43; compounds 1 μM, IRE1α-KR43 200 nM, versus DMSO control or cmp6/cmp7) | XBP1 mRNA splicing (in words) [1] | pIC50 [2] | fold lower enzyme concentration at ½ kmax, obs versus no activator (IRE1α-KR43; compound 20 μM) [fold] | fold activation of IRE1α-KR43 RNase activity (IRE1α-KR43; compounds 1 μM, IRE1α-KR43 200 nM, [32P]-labeled HP21) [fold] | time until XBP1 mRNA splicing was induced ([1]; 2 μM IPA) [h]
1 | CSc1ccc(NC(=O)Nc2ccc(Nc3nccc(Nc4cc(C5CC5)n(C)n4)n3)cc2)cc1 [IPAx] | 8 | 3.3 | did not enhance IRE1α activation | inactive | did not induce XBP1 mRNA splicing |  |  |  | 
2 | CSc1ccc(NC(=O)Nc2ccc(Nc3nccc(Nc4cc(C5CC5)[nH]n4)n3)cc2)cc1 [IPA] | 0.43 | 4.2 |  |  | induced XBP1 mRNA splicing in a time- and dose-dependent manner | 5.55 | 20 | 900 | ≤ 2
